# Entries after “also recorded” stand apart in the source; their conditions may differ.
# Legend:
# oral cancer patients = details: cited from earlier work
# Cal27 cells = assay: Flow cytometry cell cycle analysis (PI staining), Cal27; assay type: cell-based, Human; details: 500 nM each, 30 hr
# Text: (§1) Flow cytometry. […] Cells were harvested, fixed in 70% EtoH, treated with RNase A, and stained with propidium iodide (PI).
# HSC3 cells [1] = assay: Flow cytometry cell cycle analysis (PI staining), HSC3; assay type: cell-based, Human; details: 500 nM each, 30 hr
# Text: as §1
# HSC3 mouse xenografts = assay: OSCC mouse xenograft model (HSC3-derived tumors); assay type: in vivo
# Description: OSCC mouse xenograft models. All studies were approved by the UTHSCSA institutional Animal Care and Use Committee. Six week-old female athymic nude mice (Harlan, Indianapolis, […].) were used in a laminar air-flow cabinet under pathogen-free conditions. Mice were provided with a 12 h light/dark schedule at controlled temperature and humidity with food and water ad libitum. Mice were acclimated for one week prior to study initiation. Mice were injected subcutaneously in the right flank with 3×10^6 HSC3 cells in 0.1 ml of sterile PBS. […] Treatments were repeated every day for a total of 14 days. Mice were monitored daily for tumor growth (using digital calipers), cachexia, and weight loss. Tumor volumes were calculated by the elliptical formula: ½ (Length×Width^2) (Jensen et al., 2008). At experimental conclusion, tumors were fixed and processed for histological analysis. Hematoxylin and eosin (H&E) staining and IHC studies were performed by the UTHSCSA Cancer Therapy and Research Center (CTRC) core pathology laboratory.
# HSC3 cells [2] = assay: Cell viability assay, HSC3; assay type: cell-based, Human; details: 500 nM each, 48, 72 and 96 h
# Description: (§2) Cell viability assays. Cytotoxicity was assessed using the Cell Titer 96 Aqueous Non-Radioactive Cell Proliferation Assay (Promega, Madison, Wis.) according to manufacturer's protocol. Absorbance values of test groups were normalized against controls (n=4).
# Ca127 cells [3] = assay: Cell viability assay, Ca127; assay type: cell-based, Human; details: 500 nM each, 48, 72 and 96 h
# Description: as §2
# HSC3 cells [4] = assay: Cell migration (IncuCyte wound-healing) assay, HSC3; assay type: cell-based, Human; details: 500 nM each
# Description: (§3) Cell migration assay. Cellular migration was performed using the IncuCyte ZOOM™ live cell image device (Essen Bioscience). After achieving cell confluence in 96-well format, the IncuCyte scratch system was used to generate simultaneous rectangular ‘wounds’ with a defined area in HSC3 and Ca127 cell layers. […] Images of cells moving within the wound area were taken by the automated Incu-Cyte system over intervals of 2 hr (HSC3) or 3 hr (Ca127). Migration was calculated as percent of cell confluence within the wound, starting at 0% confluence (i.e., no cells in the wound area). When the wound was completely filled with migrating cells, this was calculated at 100% confluence.
# Ca127 cells [5] = assay: Cell migration (IncuCyte wound-healing) assay, Ca127; assay type: cell-based, Human; details: 500 nM each
# Description: as §3
# [6] = tested on: EGFR signaling components in HSC3 cells; assay: Western blot analysis of EGFR signaling components, HSC3; assay type: cell-based, Human; details: 500 nM each, 6 h
# Text: (§4) Immunoblotting. […] SDS-PAGE separated proteins were transferred to PVDF membrane and the membrane blocked in 5% milk.
# [7] = tested on: EGFR signaling components in Ca127 cells; assay: Western blot analysis of EGFR signaling components, Ca127; assay type: cell-based, Human; details: 500 nM each, 6 h
# Text: as §4
SMILES,G1 (Cal27 cells),G2 (Cal27 cells),S (Cal27 cells),SubG1 (Cal27 cells),G1 (HSC3 cells [1]),G2 (HSC3 cells [1]),S (HSC3 cells [1]),SubG1 (HSC3 cells [1]),cell growth (in words) (HSC3 cells [2]),cell growth (in words) (Ca127 cells [3]),also measured
C#Cc1cccc(Nc2ncnc3cc(OCCOC)c(OCCOC)cc23)c1 [Erlotinib],,,,,,,,,,,"response rate (oral cancer patients; oral cancer patients with stage I disease): 10-15%; response (in words) (oral cancer patients; patients with stages II, III, and IV disease): failed to respond entirely"
COc1cc2ncnc(Nc3ccc(F)c(Cl)c3)c2cc1OCCCN1CCOCC1 [Gefitinib],90.79 % of cell distribution,4.44 % of cell distribution,2.59 % of cell distribution,2.53 % of cell distribution,95.60 % of cell distribution,1.87 % of cell distribution,0.0 % of cell distribution,2.03 % of cell distribution,significant anti-proliferative effects,significant anti-proliferative effects,"tumor volume compared to control (HSC3 mouse xenografts; day 6, Gefitinib 100 mg/kg daily, oral gavage): 57 % of control; cell migration (in words) (HSC3 cells [4]): significant reduction from 2 to 8 h; cell migration (in words) (Ca127 cells [5]): significantly reduced at 9 h and remained significantly low for 48 h"
COc1cc(N2CCC(N3CCN(C)CC3)CC2)ccc1Nc1ncc(Cl)c(Nc2ccccc2S(=O)(=O)C(C)C)n1 [TAE684],88.11 % of cell distribution,8.40 % of cell distribution,2.25 % of cell distribution,1.68 % of cell distribution,95.23 % of cell distribution,3.73 % of cell distribution,0.84 % of cell distribution,0.34 % of cell distribution,significant anti-proliferative effects,significant anti-proliferative effects,"tumor growth (in words) (HSC3 mouse xenografts; daily oral gavage for 14 days, TAE684 10 mg/kg, Gefitinib 100 mg/kg): unaffected; also recorded: No change in tumor growth; mean tumor volume (HSC3 mouse xenografts; day 14, daily oral gavage, TAE684 10 mg/kg, Gefitinib 100 mg/kg, vehicle control 431 mm^3): 381 mm^3; activation of STAT3 (p-STAT3 to total STAT3) (in words) [6]: induced; phospho-AKT / AKT activation (in words) [6]: significantly reduced; activation of STAT3 (p-STAT3 to total STAT3) (in words) [7]: slightly induced; phospho-AKT / AKT activation (in words) [7]: significantly decreased"

# — patent publication US20200157637A1, “TARGETING OF ANAPLASTIC LYMPHOMA KINASE IN SQUAMOUS CELL CARCINOMA” (BOARD OF REGENTS, THE UNIVERSITY OF TEXAS SYSTEM, priority 2017, published 2020)
